One assay concerns Candida albicans. It counts as cell-based. To be noted: for killing of blood isolate of Candida: blood isolate of C. albicans, 400 μg/ml (150 μM); for peptide concentration required for activity: fluconazole resistant isolate A-46; for activity at the lower concentration: fluconazole resistant isolates A-5 and A-20, 200 μg/ml or 75 μM; for activity against C. albicans: in vitro killing efficacy; for fungicidal or fungistatic effect: isolates A-5, A-20, A-46 and A-155, viable colony counts versus starting inoculum; for activity against fluconazole resistant isolates: isolates A-5 and A-20; for activity against fluconazole sensitive isolates: isolates A-155, A-22 and A-111, 400 μg/ml. As for the experimental part:
(§1) Isolates used in this study included Candida albicans (ATCC 28367), three fluconazole sensitive mucosal isolates of C. albicans, designated A-22, A-111 and A-155, three fluconazole resistant mucosal isolates of C. albicans designated A-46, A-5, and A-20, and a blood isolate of C. albicans designated WDO. Isolates were stored frozen at −70° C. and streaked onto Sabouraud Dextrose Agar (Sigma, St. Louis, Mo.) plates and maintained on plates at 4° C., with subculturing onto new plates approximately every 10 days for the duration of the studies. Fluconazole resistance was evaluated. Three clinical isolates of C. glabrata, two clinical isolates of C. dubliniensis, and single isolate each of C. krusei, C. guilliermondii, C. parapsilosis, C. pseudotropicalis and C. tropicalis and two isolates of Saccharomyces cerevisiae were also used in this study and were maintained on Sabouraud Dextrose agar plates at 4° C. A single yeast colony was cultured overnight at 33° C. in 1% phytone peptone broth (Becton Dickinson, Sparks Md.) with 0.1% D-glucose (Sigma).
Stock solutions of all peptides were made up at concentrations of 1 mg/ml in sterile endotoxin-free water for irrigation (Baxter, Deerfield, Ill.). Subsequent dilutions were all made in tryptone saline pH 5.5 (Shafer et al., Infect Immun, 1984). An aliquot (100 μl) of an overnight culture of a single colony grown at 33° C. in 1% phytone peptone broth with 0.1% glucose was subcultured in 5 ml of 1% phytone peptone broth with 0.1% glucose and incubated in a shaking water bath (80 oscillations per min, Precision, Winchester, Va.) for 90 min at 33° C. to yield a logarithmic culture. […] The optical density was read and the culture adjusted to 500 blastospores/100 μl in tryptone saline pH 5.5 (Shafer et al., Infect Immun, 1984). To 100 μl of the organism suspension in a 96 well sterile polystyrene microtiter plate (Becton Dickinson, Franklin Lakes, N.J.) was added 100 μl of the peptide (final concentrations 400 μg/ml and 200 μg/ml) or 100 μl of tryptone saline. The latter served as a control. The microtiter plate was incubated at 37° C. for 4 hr and 100 μl of the contents from each well was plated on Sabouraud Dextrose agar plates and incubated at 37° C. overnight. The colony forming units (cfu) were counted and the fungicidal activity was expressed as percent killed and calculated according to the following equation: [(control cfu−test cfu)/control cfu]×100=% killed. Control cfu is indicated by the number of colonies present after […] of incubation in tryptone saline alone in the absence of peptide. Test cfu is determined by counting the number of colonies present after incubation in tryptone saline containing the peptide. Each experimental point was performed in triplicate.
C. albicans (ATCC 28367) was used to standardize the in vitro killing assay. We explored the optimal growth conditions (temperature and time, 25° C. for 5 h and 33° C. for 90 min), numbers of blastospores per well (200, 400, 500, 600, 800, and 1000 cfu), range of peptide concentrations (750, 500, 400, 200 and 100 μg/ml) and the contact time between peptide and Candida (1, 2 and 4 hr) for killing to occur. […] The 90 minute incubation was more convenient technically and was therefore employed routinely. The optimum numbers of cfu per well was determined to be 500 and an incubation time of 4 hr at 37° C. between Candida and peptide was required to obtain optimal killing.

For the next assay, the system named is C. tropicalis. Nature of the assay: In vitro candidacidal assay, C. tropicalis. The format is cell-based. To be noted: 400 μg/ml (150 μM). As for the experimental part:
as §1
(§2) Stock solutions of all peptides were made up at concentrations of 1 mg/ml in sterile endotoxin-free water for irrigation (Baxter, Deerfield, Ill.). Subsequent dilutions were all made in tryptone saline pH 5.5 (Shafer et al., Infect Immun, 1984). […] The optical density was read and the culture adjusted to 500 blastospores/100 μl in tryptone saline pH 5.5 (Shafer et al., Infect Immun, 1984). […] The colony forming units (cfu) were counted and the fungicidal activity was expressed as percent killed and calculated according to the following equation: [(control cfu−test cfu)/control cfu]×100=% killed. […] Test cfu is determined by counting the number of colonies present after incubation in tryptone saline containing the peptide. […]

In another assay the test system is C. dubliniensis. Nature of the assay: In vitro candidacidal assay, C. dubliniensis. To be noted: two isolates; 400 μg/ml (150 μM). The format is cell-based. As for the experimental part:
as §1, §2

Assay [1] concerns hyphal forms of Candida albicans. Description: In vitro candidacidal assay on hyphal forms of C. albicans. To be noted: clinical isolates; 400 and 200 μg/ml. It counts as cell-based. On the procedure:
To induce hyphal formation a single colony of C. albicans isolates A-5, A-20, A-22, A-46, A-11 and A-155 from a Sabouraud Dextrose agar plate was transferred to 1% phytone peptone broth with 0.1 glucose and grown overnight at 33° C. An aliquot (500 μl) of the overnight culture was subcultured in 5 ml of RPMI-1640 (Celigro Mediatech Inc, Herndon, Va.)) with 10% fetal calf serum (Invitrogen, Grand Island, N.Y.) for 90 min at 37° C. Hyphal formation was determined under phase microscopy.
as §2

Assay [2] deals with C. glabrata. Description: In vitro candidacidal assay, C. glabrata. The format is cell-based. To be noted: one isolate of three; 400 μg/ml (150 μM). As for the experimental part: as §1, §2
Assay [3] concerns Salmonella typhimurium, Escherichia coli, and Pseudomonas aeruginosa. To be noted: Gram negative organisms; cited from earlier work.
The next assay concerns C. pseudotropicalis. Description: In vitro candidacidal assay, C. pseudotropicalis. The format is cell-based. To be noted: 400 μg/ml (150 μM). As for the experimental part:
(§3) Isolates used in this study included Candida albicans (ATCC 28367), three fluconazole sensitive mucosal isolates of C. albicans, designated A-22, A-111 and A-155, three fluconazole resistant mucosal isolates of C. albicans designated A-46, A-5, and A-20, and a blood isolate of C. albicans designated WDO. Isolates were stored frozen at −70° C. and streaked onto Sabouraud Dextrose Agar (Sigma, St. Louis, Mo.) plates and maintained on plates at 4° C., with subculturing onto new plates approximately every 10 days for the duration of the studies. Fluconazole resistance was evaluated. […]
as §2, with “Ill.).” for “Ill.). Subsequent dilutions were all made in tryptone saline pH 5.5 (Shafer et al., Infect Immun, 1984).”

The test system of assay [4] is C. glabrata. Description: FUN-1 vital dye yeast viability, confocal microscopy, C. glabrata. It counts as cell-based. To be noted: 400 μg/ml, 37° C. for 2 hr. As for the experimental part:
(§4) Yeast viability was also assessed using the FUN-1 Live/Dead Yeast Viability Kit (Molecular Probes, Eugene, Oreg.). The methodology employed was essentially according to the protocol provided by the vendor for use with fluorescent microscopy. Briefly, yeast cultures were prepared exactly as stated above. C. glabrata, C. pseudotropicalis, C. albicans (fluconazole sensitive isolate) and S. cerevisiae (5×10^5 cfu in 100 μl of tryptone saline) were incubated (37° C. for 2 hr) in the absence or presence of peptide (CAP37(20-44)nat and CAP37(20-44)ser26/42) at a final concentration of 400 μg/ml. At the end of the incubation period, the samples were transferred to microcentrifuge tubes and centrifuged (10,000×g for 3 min at room temperature). The supernatant was removed and the pellet resuspended in 25 μl of GH solution (2% D-glucose containing 10 mM Na-HEPES, pH 7.2) as described in the technical data sheet provided by the vendor. A working solution of the FUN-1 reagent (100 μl of 10 μM) was prepared from 10 mM stock solution and 25 μl (final concentration 5 μM) added to the yeast and incubated at room temperature for 30 min. A sample (10 μl) was placed on a microscope slide and staining observed under a Leica TCS NT confocal microscope using Ar-488 and Kr-568 Lasers and 63x Plan APO 1.2 NA water immersion objective. Images were scanned and analyzed using the Leica TCS software.

The test system of the next assay is C. parapsilosis. Description: In vitro candidacidal assay, C. parapsilosis. It counts as cell-based. To be noted: 100 μg/ml (37.5 μM). As for the experimental part:
as §3
as §2, with “Ill.).” for “Ill.). Subsequent dilutions were all made in tryptone saline pH 5.5 (Shafer et al., Infect Immun, 1984).”

In the next assay the test system is C. guilliermondii. Description: In vitro candidacidal assay, C. guilliermondii. The format is cell-based. To be noted: 100 μg/ml (37.5 μM). As for the experimental part: as §3
as §2, with “Ill.).” for “Ill.). Subsequent dilutions were all made in tryptone saline pH 5.5 (Shafer et al., Infect Immun, 1984).”

Assay [5] has as its system C. albicans (fluconazole sensitive isolate). Nature of the assay: FUN-1 vital dye yeast viability, confocal microscopy, C. albicans. It counts as cell-based, Candida albicans. To be noted: 400 μg/ml, 37° C. for 2 hr. As for the experimental part: as §4
For the next assay, the system named is S. cerevisiae. Description: FUN-1 vital dye yeast viability, confocal microscopy, S. cerevisiae. The format is cell-based, Saccharomyces cerevisiae. To be noted: 400 μg/ml, 37° C. for 2 hr. As for the experimental part: as §4
The subject of the next assay is Candida. To be noted: peptides isolated from human platelets; cited from earlier work.

“Also recorded” adds a separate entry of the source. Where no end group is shown, it is not given here. Bounds are passed on as bounds.

For “NQGRHFCGGALIHARFVMTAASSFQ [CAP37(20-44)ser42, NQGRHFCGGALIHARFVMTAASSFQ]”, in the assay with Candida albicans, the killing was greater than 75%, the “killing of blood isolate of Candida” value is given as “killed”, the “peptide concentration required for activity” value amounted to 400 µg/mL and the “activity at the lower concentration” value was “significant activity”. Besides, in the assay on Candida albicans, the “activity against C. albicans” value is “significant activity”, the “fungicidal or fungistatic effect” value is listed as “fungicidal rather than fungistatic”, the “activity against fluconazole resistant isolates” value is given as “highly active” and the “activity against fluconazole sensitive isolates” value is “strongly active”. Further, in the assay with C. tropicalis, the “activity against C. tropicalis” value is “killed”. In the assay with C. dubliniensis, the “activity against C. dubliniensis” value was “more effective against C. dubliniensis than CAP37(20-44)nat; also recorded: effective against both isolates of C. dubliniensis and one isolate of C. glabrata, although to a lesser extent”. Further, the “activity on hyphal forms of C. albicans” value in [1] is on record as “greater activity”. For the same molecule, the “activity against C. glabrata” value in the assay on C. glabrata [2] is “effective against both isolates of C. dubliniensis and one isolate of C. glabrata, although to a lesser extent”.
In the case of “NQGRHFSGGALIHARFVMTAASCFQ [CAP37(20-44)ser26, NQGRHFSGGALIHARFVMTAASCFQ]”, in the assay on Candida albicans, the killing is greater than 75%, the “killing of blood isolate of Candida” value is “killed”, the “peptide concentration required for activity” value is 400 µg/mL and the “activity at the lower concentration” value is on record as “significant activity”. Besides, in the assay with Candida albicans, the “activity against C. albicans” value is listed as “significant activity”, the “fungicidal or fungistatic effect” value is recorded as “fungicidal rather than fungistatic”, the “activity against fluconazole resistant isolates” value is “highly active” and the “activity against fluconazole sensitive isolates” value is listed as “strongly active”. The “activity against C. tropicalis” value in the assay with C. tropicalis is recorded as “killed”. The “activity against C. dubliniensis” value with C. dubliniensis is “effective against both isolates of C. dubliniensis and one isolate of C. glabrata, although to a lesser extent”. Also, the “activity against C. glabrata” value with C. glabrata [2] is “effective against both isolates of C. dubliniensis and one isolate of C. glabrata, although to a lesser extent”.
“NQGRHFSGGALIHARFVMTAASSFQ (NQGRHFSGGALIHARFVMTAASSFQ; listed as Homo sapiens) [CAP37(20-44)ser26/42, cysteines at positions 26 and 42 replaced by serine]”: in assay [3], the bactericidal activity result is “inactive compound”. Moreover, the “activity against C. pseudotropicalis” value with C. pseudotropicalis is “some activity”. Moreover, the cell viability result in the assay with C. glabrata [4] is recorded as “virtually all cells were viable”. For the same molecule, in the assay with C. parapsilosis, the “activity against C. parapsilosis” value is “some activity”. Further, in the assay with Candida albicans, the “activity against C. albicans” value is on record as “significantly abrogated activity”, the “activity against fluconazole resistant isolates” value was “moderately active” and the “activity against fluconazole sensitive isolates” value is listed as “lack of activity”. Further, the “activity against C. guilliermondii” value with C. guilliermondii is on record as “some activity”. In assay [5], this molecule returned a blastoconidia alive of 30%. In addition, in the assay on S. cerevisiae, the cell viability entry is given as “virtually all cells were viable”.

B1: RANTES: Regulated upon Activation Normal T cell Expressed and Secreted protein, isolated from human platelets (protein, UniProt P13501 24-91, looked up)
C-C motif chemokine 5: SPYSSDTTPCCFAYIARPLPRAHIKEYFYTSGKCSNPAVVFVTRKNRQVCANPEKKWVREYINSLEMS
Take B1: the candidacidal activity entry in the assay with Candida is “exhibited candidacidal activity”.

B2: PF-4: platelet factor-4, isolated from human platelets (protein, UniProt P02776 32-101, looked up)
Platelet factor 4: EAEEDGDLQCLCVKTTSQVRPRHITSLEVIKAGPHCPTAQLIATLKNGRKICLDLQAPLYKKIIKKLLES
Regarding B2, in the assay on Candida, the candidacidal activity entry was “exhibited candidacidal activity”.

B3: CAP37: cationic antimicrobial protein of Mr 37 kDa of the human neutrophil (protein)
chain: IVGGRKARPRQFPFLASIQNQGRHFCGGALIHARFVMTAASCFQSQNPGVSTVVLGAYDLRRRERQSRQTFSISSMSENGYDPQQNLNDLMLLQLDREANLTSSVTILPLPLQNATVEAGTRCQVAGWGSQRSGGRLSRFPRFVNVTVTPEDQCRPNNVCTGVLTRRGGICNGDGGTPLVCEGLAHGVASFSLGPCGRGPDFFTRVALFRDWIDGVLNNPGP
Take B3: the bactericidal activity entry in [3] is “strong bactericidal activity”.

Values taken from US7745401B2, “Antifungal peptides and methods of use thereof” (The Board of Regents of the University of Oklahoma, priority 2005, dated 2010).
